In paper PMC9867837 (Cancer letters, 2022):

How the values were obtained:
MDA-MB-231 cells [1] = test: Clonogenic survival assay; assay type: cell-based, human; conditions: 0.3–2 μM H182, treated once
Protocol: These studies were performed as previously reported. Details are presented in Supplementary Information, “Methods”.
These studies were performed as previously reported . For the clonogenic survival assay, briefly, cells were seeded as single-cell (500 cells per well) in 6 -well plates, then untreated (DMSO control) or treated once the following day with H182 and allowed to grow until large colonies were visible, which were stained with crystal violet for 4 h and imaged with a FluorChem imaging system (Protein Simple, Santa Clara, CA).
For the soft-agar assay, briefly, each well contained a bottom layer of 1 ml of 1% agarose in complete DMEM and a top layer of 1 ml of 0.5% agarose in complete DMEM containing 500 cells. After the upper agar layer containing cells solidified, 1 ml culture medium containing H182 (0-2 µM) or DMSO (control) was overlaid, and the cultures were maintained at 37 °C in the incubator, with the medium replacement every 3-4 days with fresh medium that contains the inhibitor or not. Cells were allowed to culture for 3-4 weeks until large colonies were visible under microscope. The colonies were stained with crystal violet and […]
1.2.8. Confocal microscopy studies
4 cells in 1 ml) in logarithmic
These studies were performed as previously reported. […]

MDA-MB-231 cells [2] = test: Wound healing (scratch) assay for migration; assay type: cell-based, human; conditions: one-time treatment, 22 h
Protocol: Studies were performed as previously reported. Details are presented in Supplementary Information, “Methods”. […]
software and Prism GraphPad software (San Diego, CA), using the one-site model. Control experiments were carried out by titration H182 into buffer, buffer into Stat3, and buffer into buffer. The three controls were used as a composite for the ITC experiment to subtract the heat of dilution and background noise from […]
1.2.11. Wound healing assay for migration
Studies were performed as previously reported [1 -3]. Briefly, cells were cultured in 6-well plates, and the monolayer of cells was scratched with a p10 pipet tip. Subsequently, fresh medium containing inhibitors or DMSO (control) was added, and then immediately, cells were imaged with a Canon Powershot A640 digital camera under a phase contrast with the Zeiss Axiovert 200 inverted microscope at 10X magnification and noted as the zero time-point. Following culture for 22 h to allow cells to migrate into the denuded area, the culture was then imaged again at the same field that was marked on the plate.
1.2.12. Annexin V binding/apoptosis and flow cytometric analysis
For apoptosis analysis, annexin V/propidium iodide (PI) staining was performed. […] The annexin V- and/or PI-positive cells were analyzed by FACScan flow cytometer (BD Biosciences) and data was analyzed using FlowJo software. […]

hERG = molecular target: T1, hERG (Homo sapiens, UniProt Q12809); test: CEREP SafetyScreen44, hERG; assay type: binding; conditions: 10 μM H182
T1 construct: Eurofins-CEREP (contract research organisation that ran the assay)
T1 sequence (Q12809 whole entry): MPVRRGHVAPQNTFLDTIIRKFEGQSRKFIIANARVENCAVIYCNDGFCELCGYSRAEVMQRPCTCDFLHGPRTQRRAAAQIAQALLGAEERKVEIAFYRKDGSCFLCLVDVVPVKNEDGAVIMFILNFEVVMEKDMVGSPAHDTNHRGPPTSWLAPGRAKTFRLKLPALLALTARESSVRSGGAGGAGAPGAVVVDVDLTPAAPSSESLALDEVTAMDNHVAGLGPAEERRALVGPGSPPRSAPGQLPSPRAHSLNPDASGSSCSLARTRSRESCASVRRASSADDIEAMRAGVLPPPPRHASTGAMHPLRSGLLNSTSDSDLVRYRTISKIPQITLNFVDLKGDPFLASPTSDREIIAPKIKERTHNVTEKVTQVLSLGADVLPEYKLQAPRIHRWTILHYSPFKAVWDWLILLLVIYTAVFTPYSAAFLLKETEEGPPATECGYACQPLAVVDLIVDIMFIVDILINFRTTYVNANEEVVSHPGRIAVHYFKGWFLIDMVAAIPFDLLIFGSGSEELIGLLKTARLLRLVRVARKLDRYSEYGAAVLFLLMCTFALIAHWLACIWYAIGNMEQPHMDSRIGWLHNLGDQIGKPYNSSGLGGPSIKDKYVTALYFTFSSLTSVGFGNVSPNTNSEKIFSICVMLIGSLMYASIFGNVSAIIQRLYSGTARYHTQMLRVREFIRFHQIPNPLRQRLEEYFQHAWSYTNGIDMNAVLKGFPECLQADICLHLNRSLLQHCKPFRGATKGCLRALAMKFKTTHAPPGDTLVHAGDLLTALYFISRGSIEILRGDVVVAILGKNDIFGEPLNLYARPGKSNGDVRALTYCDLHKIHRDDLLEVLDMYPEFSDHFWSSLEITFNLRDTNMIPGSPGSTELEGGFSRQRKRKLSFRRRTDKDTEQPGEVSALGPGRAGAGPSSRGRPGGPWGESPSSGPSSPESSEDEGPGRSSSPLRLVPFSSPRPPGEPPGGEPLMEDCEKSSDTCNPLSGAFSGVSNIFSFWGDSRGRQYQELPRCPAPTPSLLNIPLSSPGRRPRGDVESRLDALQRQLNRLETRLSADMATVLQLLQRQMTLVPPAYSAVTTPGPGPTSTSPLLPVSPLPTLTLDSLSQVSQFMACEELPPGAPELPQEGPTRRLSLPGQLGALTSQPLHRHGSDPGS
Protocol: The in vivo activity of a compound is influenced by its overall bioavailability, which is also driven by parameters, such as solubility, permeability, and metabolism. […] These values are all above the industry cut-off of 60 μg/ml. […] It has CLint in human hepatocytes of 16 μL/min/10^6 cells, which falls into moderate stability range [43].

## O=C([C@H]1CCN1S(=O)(=O)c1c(F)c(F)c(F)c(F)c1F)N(Cc1ccc(C2CCCCC2)cn1)c1ccc2c(=O)[nH]ncc2c1 [Compound H182]
MDA-MB-231 cells [1]
  Effect on anchorage-dependent colony formation: potently and dose-dependently inhibited
MDA-MB-231 cells [2]
  Effect on cell migration into the denuded area: inhibited the cell migration
hERG
  inhibition at 10 µM: > 80%
